# In paper PMC10817917, “Alkyl deoxyglycoside-polymyxin combinations against critical priority carbapenem-resistant gram-negative bacteria” (Scientific Reports, 2024):
# Read-outs that look alike come from different tables or passages of the source.
# Tests used:
# [1] = system: E. coli ATCC 25922; experiment: Broth microdilution MIC/MBC, glycosides with or without polymyxins; assay type: cell-based, Escherichia coli
# [2] = system: K. pneumoniae CQ4921; experiment: as above; assay type: cell-based, Klebsiella pneumoniae
# [3] = system: E. cloacae CQ1941; experiment: as above; assay type: cell-based
# [4] = system: K. pneumoniae CQ1942; experiment: Broth microdilution MIC, glycosides with or without polymyxins; assay type: cell-based, Klebsiella pneumoniae
# [5] = system: K. pneumoniae CQ1947; experiment: as above; assay type: cell-based, Klebsiella pneumoniae
# [6] = system: A. baumannii CQ4322; experiment: Broth microdilution MIC/MBC, glycosides with or without polymyxins; assay type: cell-based, Acinetobacter baumannii; settings: for MIC (antibiotic susceptibility profile) / RIS (susceptibility category): antibiotic alone; for MIC (antibiotic susceptibility profile) / RIS (susceptibility category) / MIC: strain G; for MIC: agent alone, no adjuvant (polymyxin conc. 0)
# [7] = system: P. aeruginosa CQ4924; experiment: Broth microdilution MIC, glycosides with or without polymyxins; assay type: cell-based, Pseudomonas aeruginosa; settings: for MIC (antibiotic susceptibility profile) / RIS (susceptibility category): antibiotic alone; for MIC (antibiotic susceptibility profile) / RIS (susceptibility category) / MIC: strain H; for MIC: agent alone, no adjuvant (polymyxin conc. 0)
# [8] = system: E. coli NCTC 13846; experiment: Broth microdilution MIC/MBC, glycosides with or without polymyxins; assay type: cell-based, Escherichia coli; settings: strain B
# [9] = system: Caco-2 cells; experiment: Resazurin cell viability assay (cytotoxicity); assay type: cell-based, human; settings: tested alone (no polymyxin adjuvant); 72 h
# Experimental: (§1) Cytotoxicity of each compound alone or in combination with different polymyxin concentrations was evaluated through the resazurin cell viability assay[49] in human embryonic HEK-293T cells, as well as in human colon adenocarcinoma Caco-2 cells, after a 72-h long incubation period.
# (§2) HEK-293T and Caco-2 cells were grown in RPMI 1640 medium (VWR) supplemented with 10% FBS (Biowest), 1% PenStrep (Sigma Aldrich), and 1% glutamine (Biowest) in a humidified incubator at 37 °C with a 5% CO2 atmosphere. Twice a week, the medium was aspirated, the cells were washed with DPBS (VWR), trypsinized with trypsin–EDTA solution (Biowest), and resuspended in fresh culture medium. The dose-dependent effects of each glycoside or glycoside-polymyxin combination were evaluated by the resazurin cell viability assay. Polymyxins (colistin sulfate and PMB sulfate for microbiological assays, European Pharmacopoeia Reference Standards, Sigma-Aldrich) were firstly dissolved in sterilized Mili-Q water to a stock concentration of 1 mg/mL, while glycosides were dissolved in DMSO to a stock concentration of 30 mM. 1.5 × 10^4 cells/well in 96.5 µL of medium were seeded onto 96-well plates and incubated at 37 °C for 24 h. For each compound, ten stock dilutions (with concentrations from 750 to 75 µM) were prepared in fresh medium immediately prior to incubation. 16 µL of each dilution were added to each well so that the final glycoside concentrations ranged from 100 to 10 µM in each row in a final assay volume of 120 µL. In addition, the previously prepared polymyxin stock solutions were diluted in fresh medium, affording new stocks of 8, 4, and 2 µg/mL. The same volume (7.5 µL/well) of PMB or colistin was then added to each row to achieve a final polymyxin concentration of 0.5, 0.25, and 0.125 µg/mL, respectively, regardless of the glycoside concentration. In assays without polymyxin, the same volume (7.5 µL/well) of medium was added. In all assays, the maximum DMSO concentration was 0.33%. After a 72-h incubation at 37 °C, 12 µL of a 0.15 mg/mL resazurin (Sigma-Aldrich) in sterilized Mili-Q water were added to each well, and the plates were left incubating for another 4 h at 37 °C. Resorufin was measured at 570/600 nm, and the percentage of resazurin reduction, corresponding to the cell viability percentage, was calculated according to Eq. (1)[60]. IC50 values were obtained by best fitting the dose-dependent inhibition curves using the Prism 9® software. The results were expressed as the mean ± SD of three independent replicates, with only data from analysis with R^2 > 0.90 being considered.1 %Cellviability=Abssample-Absmediumcontrol/Abscellcontrol-Absmediumcontrol×100
# [10] = system: HEK-293T cells; experiment: Resazurin cell viability assay (cytotoxicity); assay type: cell-based, human; settings: tested alone (no polymyxin adjuvant); 72 h
# Experimental: as §1, §2
# [11] = system: HEK-293 cells; parameters: method as in PMID 30532748; settings: polymyxin alone; cited from earlier work
# [12] = Escherichia coli, ATCC25922, antibiotic alone, strain A, read-out: MIC (antibiotic susceptibility profile)
# [13] = Klebsiella pneumoniae, CQ4921, antibiotic alone, strain C, read-out: MIC (antibiotic susceptibility profile)
# [14] = Enterobacter cloacae, CQ1941, antibiotic alone, strain D, read-out: MIC (antibiotic susceptibility profile)
# [15] = Klebsiella pneumoniae, CQ1942, antibiotic alone, strain E, read-out: MIC (antibiotic susceptibility profile)
# [16] = Klebsiella pneumoniae, CQ1947, antibiotic alone, strain F, read-out: MIC (antibiotic susceptibility profile)
# [17] = agent alone, no adjuvant (polymyxin conc. 0), strain A
# [18] = agent alone, no adjuvant (polymyxin conc. 0), strain C
# [19] = agent alone, no adjuvant (polymyxin conc. 0), strain D
# [20] = agent alone, no adjuvant (polymyxin conc. 0), strain E
# [21] = agent alone, no adjuvant (polymyxin conc. 0), strain F
compound,measurement,setting,value
"NCC[C@H](O)C(=O)N[C@@H]1C[C@H](N)[C@@H](O[C@H]2O[C@H](CN)[C@@H](O)[C@H](O)[C@H]2O)[C@H](O)[C@H]1O[C@H]1O[C@H](CO)[C@@H](O)[C@H](N)[C@H]1O [Amikacin, reference compound]",MIC,[1]; [12],1 to 2 µg/mL
same,MIC,[2]; [13],0.5 to 2 µg/mL
same,MIC,[3]; [14],≥ 128 µg/mL
same,MIC,[4]; [15],16 µg/mL
same,MIC,[5]; [16],32 µg/mL
same,MIC (antibiotic susceptibility profile),[6],≥ 128 µg/mL
same,MIC (antibiotic susceptibility profile),[7],4 µg/mL
"CC1(C)S[C@@H]2[C@H](NC(=O)[C@H](N)c3ccc(O)cc3)C(=O)N2[C@H]1C(=O)O [Amoxicillin, reference compound]",MIC,[1]; [12],4 µg/mL
same,MIC,[2]; [13],≥ 128 µg/mL
same,MIC,[3]; [14],≥ 128 µg/mL
same,MIC,[4]; [15],≥ 128 µg/mL
same,MIC,[5]; [16],≥ 128 µg/mL
same,RIS (susceptibility category),[6],ERP
same,RIS (susceptibility category),[7],ERP
"CC1(C)S[C@@H]2[C@H](NC(=O)[C@H](N)c3ccccc3)C(=O)N2[C@H]1C(=O)O [Ampicillin, reference compound]",MIC,[1]; [12],4 µg/mL
same,MIC,[2]; [13],≥ 128 µg/mL
same,MIC,[3]; [14],≥ 128 µg/mL
same,MIC,[4]; [15],≥ 128 µg/mL
same,MIC,[5]; [16],≥ 128 µg/mL
same,RIS (susceptibility category),[6],ERP
same,RIS (susceptibility category),[7],ERP
"C[C@H]1[C@H](NC(=O)/C(=N\OC(C)(C)C(=O)O)c2csc(N)n2)C(=O)N1S(=O)(=O)O [Aztreonam, reference compound]",MIC,[3]; [14],> 64 µg/mL
same,MIC,[4]; [15],> 64 µg/mL
same,MIC,[5]; [16],0.25 µg/mL
same,RIS (susceptibility category),[6],ERP
"CO/N=C(\C(=O)N[C@@H]1C(=O)N2C(C(=O)[O-])=C(C[N+]3(C)CCCC3)CS[C@H]12)c1csc(N)n1 [Cefepime, reference compound]",MIC,[1]; [12],0.03 to 0.06 µg/mL
same,MIC,[3]; [14],> 64 µg/mL
same,MIC,[4]; [15],> 64 µg/mL
same,MIC,[5]; [16],32 µg/mL
"CO/N=C(\C(=O)N[C@@H]1C(=O)N2C(C(=O)O)=C(COC(C)=O)CS[C@H]12)c1csc(N)n1 [Cefotaxime, reference compound]",MIC,[1]; [12],0.06 µg/mL
same,MIC,[2]; [13],2 µg/mL
same,RIS (susceptibility category),"[2]; antibiotic alone, strain C",I/R
same,MIC,[3]; [14],≥ 128 µg/mL
same,MIC,[4]; [15],≥ 128 µg/mL
same,MIC,[5]; [16],≥ 128 µg/mL
same,RIS (susceptibility category),[6],ERP
same,RIS (susceptibility category),[7],ERP
"CC(C)(O/N=C(\C(=O)N[C@@H]1C(=O)N2C(C(=O)[O-])=C(C[n+]3ccccc3)CS[C@H]12)c1csc(N)n1)C(=O)O [Ceftazidime, reference compound]",MIC,[1]; [12],0.125 to 0.25 µg/mL
same,MIC,[2]; [13],1 µg/mL
same,MIC,[3]; [14],≥ 128 µg/mL
same,MIC,[4]; [15],≥ 128 µg/mL
same,MIC,[5]; [16],≥ 128 µg/mL
same,MIC (antibiotic susceptibility profile),[7],4 µg/mL
"C[C@@H](O)[C@H]1C(=O)N2C(C(=O)O)=C(S[C@@H]3CN[C@H](C(=O)Nc4cccc(C(=O)O)c4)C3)[C@H](C)[C@H]12 [Ertapenem, reference compound]",MIC,[1]; [12],0.008 µg/mL
same,MIC,[2]; [13],8 to 64 µg/mL
same,MIC,[3]; [14],64 µg/mL
same,MIC,[4]; [15],≥ 128 µg/mL
same,MIC,[5]; [16],16 to 64 µg/mL
same,RIS (susceptibility category),[6],ERP
same,RIS (susceptibility category),[7],ERP
"CNC(C)C1CCC(N)C(OC2C(N)CC(N)C(OC3OCC(C)(O)C(NC)C3O)C2O)O1 (stereo not drawn) [Gentamicin, reference compound]",MIC,[1]; [12],0.5 µg/mL
same,MIC,[2]; [13],0.25 to 0.5 µg/mL
same,MIC,[3]; [14],≥ 128 µg/mL
same,MIC,[4]; [15],1 µg/mL
same,MIC,[5]; [16],64 µg/mL
same,MIC (antibiotic susceptibility profile),[6],32 to 64 µg/mL
same,MIC (antibiotic susceptibility profile),[7],2 µg/mL
same,RIS (susceptibility category),[7],wt
"C[C@@H](O)[C@H]1C(=O)N2C(C(=O)O)=C(SCCN=CN)C[C@H]12 [Imipenem, reference compound]",MIC,[1]; [12],0.125 to 0.25 µg/mL
same,MIC,[2]; [13],4 µg/mL
same,MIC,[3]; [14],16 µg/mL
same,MIC,[4]; [15],≥ 128 µg/mL
same,MIC,[5]; [16],8 to 16 µg/mL
same,MIC (antibiotic susceptibility profile),[6],32 to 64 µg/mL
same,MIC (antibiotic susceptibility profile),[7],16 µg/mL
"C[C@@H](O)[C@H]1C(=O)N2C(C(=O)O)=C(S[C@@H]3CN[C@H](C(=O)N(C)C)C3)[C@H](C)[C@H]12 [Meropenem, reference compound]",MIC,[1]; [12],0.016 to 0.03 µg/mL
same,MIC,[2]; [13],4 µg/mL
same,MIC,[3]; [14],32 to 64 µg/mL
same,MIC,[4]; [15],≥ 128 µg/mL
same,MIC,[5]; [16],16 to 32 µg/mL
same,MIC (antibiotic susceptibility profile),[7],16 µg/mL
"NC[C@H]1O[C@H](O[C@H]2[C@H](O)[C@@H](O[C@H]3O[C@H](CO)[C@@H](O)[C@H](N)[C@H]3O)[C@H](N)C[C@@H]2N)[C@H](N)C[C@@H]1O [Tobramycin, reference compound]",MIC,[1]; [12],0.5 µg/mL
same,MIC,[2]; [13],0.25 µg/mL
same,MIC,[3]; [14],≥ 128 µg/mL
same,MIC,[4]; [15],16 µg/mL
same,MIC,[5]; [16],≥ 128 µg/mL
same,MIC (antibiotic susceptibility profile),[6],32 µg/mL
same,MIC (antibiotic susceptibility profile),[7],1 µg/mL
colistin [reference compound],MIC,[1]; [17],0.5 µg/mL
same,MICB (MIC of colistin individually),[1]; alone,0.5 µg/mL
same,MIC (antibiotic susceptibility profile),"[1]; antibiotic alone, strain A",0.5 to 1 µg/mL
same,MIC (antibiotic susceptibility profile),[8]; antibiotic alone,4 µg/mL
same,MIC,[2]; [18],0.5 µg/mL
same,MICB (MIC of colistin individually),[2]; alone,0.5 µg/mL
same,MIC (antibiotic susceptibility profile),"[2]; antibiotic alone, strain C",0.125 to 1 µg/mL
same,MIC,[3]; [19],0.5 µg/mL
same,MICB (MIC of colistin individually),[3]; alone,0.5 µg/mL
same,MIC (antibiotic susceptibility profile),"[3]; antibiotic alone, strain D",0.125 to 1 µg/mL
same,MIC,[4]; [20],0.5 µg/mL
same,MICB (MIC of colistin individually),[4]; alone,0.5 µg/mL
same,MIC (antibiotic susceptibility profile),"[4]; antibiotic alone, strain E",0.125 to 1 µg/mL
same,MIC,[5]; [21],0.5 µg/mL
same,MICB (MIC of colistin individually),[5]; alone,0.5 µg/mL
same,MIC (antibiotic susceptibility profile),"[5]; antibiotic alone, strain F",0.125 to 1 µg/mL
same,MIC,[6],0.5 µg/mL
same,MICB (MIC of colistin individually),[6]; alone,0.5 µg/mL
same,MIC (antibiotic susceptibility profile),[6],0.5 to 1 µg/mL
same,MIC,[7],1 µg/mL
same,MICB (MIC of colistin individually),[7]; alone,1 µg/mL
same,MIC (antibiotic susceptibility profile),[7],1 to 2 µg/mL
same,IC50,[9],> 115 µg/mL
same,IC50,[10],> 115 µg/mL
same,IC50,[11],> 1000 µg/mL
"polymyxin B [PMB, reference compound]",MIC,[1]; [17],0.5 µg/mL
same,MIC,"[8]; agent alone, no adjuvant (polymyxin conc. 0)",4 µg/mL
same,MIC,[2]; [18],0.5 µg/mL
same,MIC,[3]; [19],0.5 µg/mL
same,MIC,[4]; [20],0.5 µg/mL
same,MIC,[5]; [21],0.5 µg/mL
same,MIC,[6],0.5 µg/mL
same,MIC,[7],1 µg/mL
same,IC50,[9],> 115 µg/mL
same,IC50,[10],> 115 µg/mL
same,IC50,[11],> 500 µg/mL
